According to US20130053430A1, “MODULATION OF CETP EXPRESSION” (Isis Pharmaceuticals, Inc., priority 2010, published 2013):
e = 2'-O-(2-methoxyethyl) (MOE); d = 2'-deoxy (DNA)

Legend:
CETP mRNA = test: Liver CETP mRNA in huApoB/huCETP/mLDLr mouse model for cardiovascular disease (Example 7); type: in vivo, human; conditions: huApoB+/−huCETP+/−mLDLr+/− mice (Groups B-E); ASO 25 mg/kg s.c. twice per week, nicotinic acid 2 g/kg/day s.c. + 1% in diet, 6 weeks; relative to PBS control (Group A)
Source text: The saline-injected group served as the control group to which oligonucleotide-treated groups were compared. […] This group served a negative control for the effects of the antisense oligonucleotides against CETP. The groups are further described in Table 27, and are designated letters A-F, by which they will be referred from henceforth.

[1] = Plasma cholesterol and triglyceride levels, dose response (Example 9); type: in vivo, mice
Protocol: Another group received subcutaneous injections of control oligonucleotide ISIS 141923 at a dose of 50 mg/kg/week for 6 weeks. One group of mice received subcutaneous injections of PBS for 6 weeks. The PBS-injected group served as the control group to which treatment groups were compared.
G. and Dyer, W. J. Can. J. Biochem. Physiol. 37: 911-917, 1959) and measured with an Olympus clinical analyzer (Hitachi Olympus AU400e, Melville, N.Y.). HDL and LDL cholesterol were individually measured by HPLC. Triglyceride levels were measured with the use of a commercially available triglyceride kit (DCL Triglyceride Reagent; Diagnostic Chemicals Ltd.). The results are presented in Tables 47-51 and are expressed in mg/dL.

[2] = Plasma cholesterol and triglyceride levels (Example 6); type: in vivo, mice; conditions: 50 mg/kg s.c. twice per week
Source text: The normal chow-fed mice were divided into three treatment groups. The cholesterol-enriched chow-fed mice were divided into three treatment groups. […] One chow-fed group and one cholesterol-enriched chow-fed group received subcutaneous injections of saline twice weekly for 6 weeks. The saline-injected groups served as the control groups to which the corresponding oligonucleotide-treated groups were compared.
Plasma cholesterol were extracted at weeks 3 and 6 by the method of Bligh and Dyer (Bligh, E. G. and Dyer, W. J. Can. J. Biochem. Physiol. 37: 911-917, 1959) and measured on weeks 0, 3 and 6 with an Olympus clinical analyzer (Hitachi Olympus AU400e, Melville, N.Y.). HDL, LDL and VLDL cholesterol were individually measured by HPLC. Triglyceride levels were measured on weeks 0, 3 and 6 with the use of a commercially available triglyceride kit (DCL Triglyceride Reagent; Diagnostic Chemicals Ltd.). VLDL levels were measured on week 6. The results are presented in Tables 22-26 and are expressed in mg/dL.

Substance: ISIS 349517: 5-10-5 MOE gapmer CAGCACTTTAATGCCAGTGG (sugars from the 5' end e5 d10 e5, backbone and methylation of C not given here)
- Percent inhibition of liver CETP mRNA expression (CETP mRNA): 86%
- HDL cholesterol levels ([1]; 1.5 mg/kg/wk, Week 0): 80 mg/dL
- LDL cholesterol levels ([1]; 1.5 mg/kg/wk, Week 0): 58 mg/dL
- Total cholesterol levels ([1]; 1.5 mg/kg/wk, Week 0): 154 mg/dL
- Triglyceride levels ([1]; 1.5 mg/kg/wk, Week 0): 63 mg/dL
- % change in HDL levels compared to total cholesterol ([1]; 1.5 mg/kg/wk, Week 3): 12%
- HDL cholesterol levels ([1]; 1.5 mg/kg/wk, Week 3): 117 mg/dL
- LDL cholesterol levels ([1]; 1.5 mg/kg/wk, Week 3): 35 mg/dL
- Total cholesterol levels ([1]; 1.5 mg/kg/wk, Week 3): 171 mg/dL
- Triglyceride levels ([1]; 1.5 mg/kg/wk, Week 3): 50 mg/dL
- % change in HDL levels compared to total cholesterol ([1]; 1.5 mg/kg/wk, Week 6): 24%
- HDL cholesterol levels ([1]; 1.5 mg/kg/wk, Week 6): 132 mg/dL
- LDL cholesterol levels ([1]; 1.5 mg/kg/wk, Week 6): 38 mg/dL
- Total cholesterol levels ([1]; 1.5 mg/kg/wk, Week 6): 180 mg/dL
- Triglyceride levels ([1]; 1.5 mg/kg/wk, Week 6): 91 mg/dL
- HDL cholesterol levels ([1]; 5 mg/kg/wk, Week 0): 88 mg/dL
- LDL cholesterol levels ([1]; 5 mg/kg/wk, Week 0): 62 mg/dL
- Total cholesterol levels ([1]; 5 mg/kg/wk, Week 0): 164 mg/dL
- Triglyceride levels ([1]; 5 mg/kg/wk, Week 0): 57 mg/dL
- % change in HDL levels compared to total cholesterol ([1]; 5 mg/kg/wk, Week 3): 11%
- HDL cholesterol levels ([1]; 5 mg/kg/wk, Week 3): 130 mg/dL
- LDL cholesterol levels ([1]; 5 mg/kg/wk, Week 3): 31 mg/dL
- Total cholesterol levels ([1]; 5 mg/kg/wk, Week 3): 172 mg/dL
- Triglyceride levels ([1]; 5 mg/kg/wk, Week 3): 51 mg/dL
- % change in HDL levels compared to total cholesterol ([1]; 5 mg/kg/wk, Week 6): 23%
- HDL cholesterol levels ([1]; 5 mg/kg/wk, Week 6): 151 mg/dL
- LDL cholesterol levels ([1]; 5 mg/kg/wk, Week 6): 36 mg/dL
- Total cholesterol levels ([1]; 5 mg/kg/wk, Week 6): 202 mg/dL
- Triglyceride levels ([1]; 5 mg/kg/wk, Week 6): 85 mg/dL
- HDL cholesterol levels ([1]; 15 mg/kg/wk, Week 0): 86 mg/dL
- LDL cholesterol levels ([1]; 15 mg/kg/wk, Week 0): 54 mg/dL
- Total cholesterol levels ([1]; 15 mg/kg/wk, Week 0): 152 mg/dL
- Triglyceride levels ([1]; 15 mg/kg/wk, Week 0): 47 mg/dL
- % change in HDL levels compared to total cholesterol ([1]; 15 mg/kg/wk, Week 3): 26%
- HDL cholesterol levels ([1]; 15 mg/kg/wk, Week 3): 141 mg/dL
- LDL cholesterol levels ([1]; 15 mg/kg/wk, Week 3): 32 mg/dL
- Total cholesterol levels ([1]; 15 mg/kg/wk, Week 3): 185 mg/dL
- Triglyceride levels ([1]; 15 mg/kg/wk, Week 3): 48 mg/dL
- % change in HDL levels compared to total cholesterol ([1]; 15 mg/kg/wk, Week 6): 42%
- HDL cholesterol levels ([1]; 15 mg/kg/wk, Week 6): 164 mg/dL
- LDL cholesterol levels ([1]; 15 mg/kg/wk, Week 6): 40 mg/dL
- Total cholesterol levels ([1]; 15 mg/kg/wk, Week 6): 217 mg/dL
- Triglyceride levels ([1]; 15 mg/kg/wk, Week 6): 85 mg/dL
- HDL cholesterol levels ([1]; 50 mg/kg/wk, Week 0): 77 mg/dL
- LDL cholesterol levels ([1]; 50 mg/kg/wk, Week 0): 59 mg/dL
- Total cholesterol levels ([1]; 50 mg/kg/wk, Week 0): 145 mg/dL
- Triglyceride levels ([1]; 50 mg/kg/wk, Week 0): 41 mg/dL
- % change in HDL levels compared to total cholesterol ([1]; 50 mg/kg/wk, Week 3): 43%
- HDL cholesterol levels ([1]; 50 mg/kg/wk, Week 3): 139 mg/dL
- LDL cholesterol levels ([1]; 50 mg/kg/wk, Week 3): 33 mg/dL
- Total cholesterol levels ([1]; 50 mg/kg/wk, Week 3): 184 mg/dL
- Triglyceride levels ([1]; 50 mg/kg/wk, Week 3): 49 mg/dL
- % change in HDL levels compared to total cholesterol ([1]; 50 mg/kg/wk, Week 6): 37%
- HDL cholesterol levels ([1]; 50 mg/kg/wk, Week 6): 123 mg/dL
- LDL cholesterol levels ([1]; 50 mg/kg/wk, Week 6): 38 mg/dL
- Total cholesterol levels ([1]; 50 mg/kg/wk, Week 6): 170 mg/dL
- Triglyceride levels ([1]; 50 mg/kg/wk, Week 6): 60 mg/dL
- HDL cholesterol levels ([2]; Cholesterol chow, Week 0): 49 mg/dL
- LDL cholesterol levels ([2]; Cholesterol chow, Week 0): 134 mg/dL
- Total cholesterol levels ([2]; Cholesterol chow, Week 0): 201 mg/dL
- Triglyceride levels ([2]; Cholesterol chow, Week 0): 84 mg/dL
- HDL cholesterol levels ([2]; Cholesterol chow, Week 3): 78 mg/dL
- LDL cholesterol levels ([2]; Cholesterol chow, Week 3): 597 mg/dL
- Total cholesterol levels ([2]; Cholesterol chow, Week 3): 739 mg/dL
- Triglyceride levels ([2]; Cholesterol chow, Week 3): 107 mg/dL
- HDL cholesterol levels ([2]; Cholesterol chow, Week 6): 122 mg/dL
- LDL cholesterol levels ([2]; Cholesterol chow, Week 6): 486 mg/dL
- Total cholesterol levels ([2]; Cholesterol chow, Week 6): 695 mg/dL
- Triglyceride levels ([2]; Cholesterol chow, Week 6): 102 mg/dL
- VLDL cholesterol levels ([2]; Cholesterol chow, Week 6): 88 mg/dL
- HDL cholesterol levels ([2]; Normal chow, Week 0): 53 mg/dL
- LDL cholesterol levels ([2]; Normal chow, Week 0): 162 mg/dL
- Total cholesterol levels ([2]; Normal chow, Week 0): 237 mg/dL
- Triglyceride levels ([2]; Normal chow, Week 0): 66 mg/dL
- HDL cholesterol levels ([2]; Normal chow, Week 3): 64 mg/dL
- LDL cholesterol levels ([2]; Normal chow, Week 3): 146 mg/dL
- Total cholesterol levels ([2]; Normal chow, Week 3): 238 mg/dL
- Triglyceride levels ([2]; Normal chow, Week 3): 97 mg/dL
- HDL cholesterol levels ([2]; Normal chow, Week 6): 100 mg/dL
- LDL cholesterol levels ([2]; Normal chow, Week 6): 220 mg/dL
- Total cholesterol levels ([2]; Normal chow, Week 6): 375 mg/dL
- Triglyceride levels ([2]; Normal chow, Week 6): 91 mg/dL
- VLDL cholesterol levels ([2]; Normal chow, Week 6): 55 mg/dL

Substance: ISIS 349511: 5-10-5 MOE gapmer CCCGACCTCCTTGGAGACTT (sugars from the 5' end e5 d10 e5, backbone and methylation of C not given here)
- Percent inhibition of liver CETP mRNA expression (CETP mRNA): 70%
- HDL cholesterol levels ([2]; Cholesterol chow, Week 0): 51 mg/dL
- LDL cholesterol levels ([2]; Cholesterol chow, Week 0): 179 mg/dL
- Total cholesterol levels ([2]; Cholesterol chow, Week 0): 252 mg/dL
- Triglyceride levels ([2]; Cholesterol chow, Week 0): 101 mg/dL
- HDL cholesterol levels ([2]; Cholesterol chow, Week 3): 85 mg/dL
- LDL cholesterol levels ([2]; Cholesterol chow, Week 3): 576 mg/dL
- Total cholesterol levels ([2]; Cholesterol chow, Week 3): 714 mg/dL
- Triglyceride levels ([2]; Cholesterol chow, Week 3): 94 mg/dL
- HDL cholesterol levels ([2]; Cholesterol chow, Week 6): 136 mg/dL
- LDL cholesterol levels ([2]; Cholesterol chow, Week 6): 558 mg/dL
- Total cholesterol levels ([2]; Cholesterol chow, Week 6): 809 mg/dL
- Triglyceride levels ([2]; Cholesterol chow, Week 6): 99 mg/dL
- VLDL cholesterol levels ([2]; Cholesterol chow, Week 6): 115 mg/dL
- HDL cholesterol levels ([2]; Normal chow, Week 0): 51 mg/dL
- LDL cholesterol levels ([2]; Normal chow, Week 0): 176 mg/dL
- Total cholesterol levels ([2]; Normal chow, Week 0): 254 mg/dL
- Triglyceride levels ([2]; Normal chow, Week 0): 80 mg/dL
- HDL cholesterol levels ([2]; Normal chow, Week 3): 56 mg/dL
- LDL cholesterol levels ([2]; Normal chow, Week 3): 148 mg/dL
- Total cholesterol levels ([2]; Normal chow, Week 3): 227 mg/dL
- Triglyceride levels ([2]; Normal chow, Week 3): 90 mg/dL
- HDL cholesterol levels ([2]; Normal chow, Week 6): 98 mg/dL
- LDL cholesterol levels ([2]; Normal chow, Week 6): 178 mg/dL
- Total cholesterol levels ([2]; Normal chow, Week 6): 327 mg/dL
- Triglyceride levels ([2]; Normal chow, Week 6): 101 mg/dL
- VLDL cholesterol levels ([2]; Normal chow, Week 6): 50 mg/dL

Substance: ISIS 141923: CCTTCCCTGAAGGTTCCTCC, 5-10-5 MOE gapmer, a control oligonucleotide which has no known murine target (sugars from the 5' end e5 d10 e5, backbone and methylation of C not given here) [reference compound]
- HDL cholesterol levels ([1]; 50 mg/kg/wk, Week 0): 87 mg/dL
- LDL cholesterol levels ([1]; 50 mg/kg/wk, Week 0): 54 mg/dL
- Total cholesterol levels ([1]; 50 mg/kg/wk, Week 0): 153 mg/dL
- Triglyceride levels ([1]; 50 mg/kg/wk, Week 0): 49 mg/dL
- % change in HDL levels compared to total cholesterol ([1]; 50 mg/kg/wk, Week 3): −17%
- HDL cholesterol levels ([1]; 50 mg/kg/wk, Week 3): 115 mg/dL
- LDL cholesterol levels ([1]; 50 mg/kg/wk, Week 3): 42 mg/dL
- Total cholesterol levels ([1]; 50 mg/kg/wk, Week 3): 164 mg/dL
- Triglyceride levels ([1]; 50 mg/kg/wk, Week 3): 58 mg/dL
- % change in HDL levels compared to total cholesterol ([1]; 50 mg/kg/wk, Week 6): −23%
- HDL cholesterol levels ([1]; 50 mg/kg/wk, Week 6): 124 mg/dL
- LDL cholesterol levels ([1]; 50 mg/kg/wk, Week 6): 47 mg/dL
- Total cholesterol levels ([1]; 50 mg/kg/wk, Week 6): 180 mg/dL
- Triglyceride levels ([1]; 50 mg/kg/wk, Week 6): 88 mg/dL
